What was measured:
[1] = test system: mustard beetles (Phaedon cochleariae Fab); assay: Relative toxicity to mustard beetles, topical micro drop; format: in vivo; settings: for Relative Toxicity, Mustard Beetles: 5-benzyl-3-furylmethyl (1R)-trans-chrysanthemate = 1000, inverse ratio of LD50, topical, 48 hours
Method: (§1) The toxicity of these new esters was tested by the procedure described in detail in our above mentioned application and the following results were obtained:
(§2) The insecticidal acitivity of the esters of the invention was assessed against houseflies and mustard beetles using the following techniques:
Acetone solutions of the test compound were applied ventrally to adult mustard beetles using a micro drop applicator. The treated insects were maintained for 48 hours after which time kill is assessed. Two replicates of 40 to 50 mustard beetles were used at each dose level and 3 to 4 dose levels were used for each compound. Again, LD50 values were calculated and relative toxicities were calculated for the inverse ratios of LD50 (see Elliott et al, J. Sci. Food Agric. 20, 561, (1969)).
(§3) Relative toxicities were calculated by comparison with 5-benzyl-3-furylmethyl(1R)-trans-chrysanthemate which is one of the most toxic chrysanthemate esters known to houseflies and mustard beetles, its toxicity being about 24 times that of allethrin to houseflies and 65 times that of allethrin to mustard beetles.

[2] = test system: female flies (houseflies); assay: Synergisability with Sesamex, 5 micrograms per fly 3 hours before; format: in vivo, Musca domestica; settings: for LD50 Active compound (flies pretreated with synergist): 5 micrograms per fly Sesamex 3 hours before; for Approx. synergist factor: Sesamex, 5 micrograms per fly; for LD 50 active compound only: without synergist
Method: The following results were obtained
By repeating the above synergisability test but pretreating flies instead with 5 micrograms per fly of the synergist Sesamex 3 hours before applying the pyrethroid, the following results were obtained: […]

[3] = test system: houseflies (Musca domestica); assay: Relative toxicity to houseflies, topical drop on thorax; format: in vivo; settings: for Relative Toxicity, Houseflies: 5-benzyl-3-furylmethyl (1R)-trans-chrysanthemate = 1000, inverse ratio of LD50, topical, female flies
Method: as §1, §2
(§4) Female flies were treated on the thorax with a one microliter drop of insecticide dissolved in acetone. Two replicates of 15 flies were used at each dose rate and 6 dose rates were used per compound under test. After treatment, the flies were maintained at a temperature of 20° C.±1° and kill was assessed 24 and 48 hours after treatment. LD50 values were calculated in micrograms of insecticide per fly and relative toxicities were calculated from the inverse ratios of the LD50 values. (see Sawicki et al, Bulletin of the World Health Organization, 35,893, (1966) and Sawicki et al, Entomologia and Exp. Appl. 10, 253, (1967)).
as §3

[4] = test system: Ephestia kuhniella and Venturia canescens; assay: Selective toxicity to Ephestia compared to Venturia (LD50 ratio); format: in vivo; settings: for Selectivity (ratio of toxicity to Ephestia compared to Venturia): ratio from relative toxicity (LD50)
Excerpt: Experiments to compare the relative toxicity (LD50) of compound P39E with certain related compounds have been carried out towards both Ephestia kuhniella and Venturia canescens so that the relative toxicity to the two species can be calculated. […]

[5] = test system: American cockroach, Periplaneta americana L.; assay: Toxicity relative to bioresmethrin against American cockroach; format: in vivo; settings: for Relative Toxicity (American cockroach): Bioresmethrin = 100
[6] = Mammalian toxicity in rats; settings: rat, in vivo
[7] = test system: female flies (houseflies); assay: Synergisability with sesamex, 2 μg per fly pretreatment; format: in vivo, Musca domestica; settings: for Approx. Synergistic factor: sesamex, 2 μg. per fly
Method: as §4, with “values.” for “values. (see Sawicki et al, Bulletin of the World Health Organization, 35,893, (1966) and Sawicki et al, Entomologia and Exp. Appl. 10, 253, (1967)).”

[8] = test system: female Musca domestica; assay: Topical application of pyrethroids alone and with piperonyl butoxide or Tropital; format: in vivo; settings: for LD 50 active compound only: alone; for LD50 Active compound + piperonyl butoxide (1:5): with piperonyl butoxide (1:5)
Excerpt: Topical application of pyrethroids alone and in combination with synergist gave the following LD50 results in micrograms with female Musca domestica: […]

[9] = test system: houseflies (M. domestica); assay: Insecticidal activity by spraying in a Kearns and March chamber; format: in vivo, Musca domestica; settings: for LD50: compound alone, odourless kerosene spray
Method: The insecticidal activity of DP 870 against houseflies was tested by spraying M. domestica in a Kearns and March chamber with a solution of a compound in odourless kerosene, and LD50 values calculated. The activity of DP 870 synergised with piperonylbutoxide was also measured and the results compared with the LD50 value for compound P21H of Example 18.

[10] = Mammalian toxicity in mice; settings: mouse, in vivo; oral acute
[11] = test system: Boophilus microplus, Biarra strain; assay: Acaricidal activity: inhibition of egg laying of injected engorged female ticks; format: in vivo; settings: Rhipicephalus microplus, 336 h, 14 days after injection, read-out: % Inhibition (egg laying ability)
Excerpt: Acaricidal activity has been measured by injecting solutions of test compound P39E into engorged female ticks, Boophilus microplus, Biarra strain and the ability of the female to lay eggs 14 days after injection determined. The results are exposed as a percent of inhibition of egg laying ability compared to untreated control ticks.

## CC1(C)C(C=C(Br)Br)C1C(=O)OC(C#N)c1cccc(Oc2ccccc2)c1 [P29B (crystalline isomer), (αS)-cyano-3-phenoxybenzyl(1R)cis-2,2-dimethyl-3-(2,2-dibromovinyl)cyclopropane carboxylate]
[1]
  Relative Toxicity, Mustard Beetles: 14000
[2]
  LD50 Active compound (flies pretreated with synergist): 0.00023 µg
  Approx. synergist factor: ~7
  LD 50 active compound only: 0.0016 µg
[3]
  Relative Toxicity, Houseflies: 23000
[4]
  Selectivity (ratio of toxicity to Ephestia compared to Venturia): 3.6

## CC(C)=C[C@@H]1[C@@H](C(=O)OCc2coc(Cc3ccccc3)c2)C1(C)C [Bioresmethrin, 5-benzyl-3-furylmethyl (1R)--trans-chrysanthemate, reference compound]
[5]; in vivo
  LD50 (American cockroach): 2.5 μg/insect
[6]; iv
  LD50: 340 mg/kg
[6]; po
  LD50: > 8000 mg/kg
[1]; relative to allethrin
  toxicity, times that of allethrin, to mustard beetles: ~65 times
[3]; relative to allethrin
  toxicity, times that of allethrin, to houseflies: about 24 times
[7]
  Approx. Synergistic factor: ~9.4

## CC/C=C\[C@@H]1[C@@H](C(=O)OCc2coc(Cc3ccccc3)c2)C1(C)C [Compound A]
[8]
  LD 50 active compound only: 0.034 µg
  LD50 Active compound + piperonyl butoxide (1:5): 0.015 µg
[6]; iv
  LD50: 120 mg/kg
[6]; po
  LD50: 800 to 1000 mg/kg
[1]
  Relative Toxicity, Mustard Beetles: 2000
[3]
  Relative Toxicity, Houseflies: 1700
[7]; pretreated with 2 μg. per fly sesamex
  LD 50 active compound + synergist: 0.00033 μg. per female fly
[7]
  Approx. Synergistic factor: ~13
[7]; untreated flies
  LD 50 active compound only: 0.0042 μg. per female fly

## CC1(C)[C@H](C=C(F)F)[C@H]1C(=O)OCN1C(=O)C2=C(CCCC2)C1=O [DP 870]
[9]
  LD50: 0.09 μg/female
[9]; plus piperonyl butoxide (1:5 w/w)
  LD50, plus piperonyl-butoxide: 0.04 μg/female

## CC1(C)C(C=C(Cl)Cl)C1C(=O)OC(C#N)c1cccc(Oc2ccccc2)c1 (racemic) [Compound P21P, (αRS)-cyano-3-phenoxybenzyl-(1RS)-cis-trans-3-(2,2-dichlorovinyl)-2,2-dimethyl cyclopropane carboxylate]
[1]
  Relative Toxicity, Mustard Beetles: ≥ 5000
[2]
  LD50 Active compound (flies pretreated with synergist): 0.00088 µg
  Approx. synergist factor: ~8.3
  LD 50 active compound only: 0.0073 µg
[3]
  Relative Toxicity, Houseflies: 1300

## CC1(C)[C@H](C=C(Cl)Cl)[C@H]1C(=O)OCc1cccc(Oc2ccccc2)c1 (relative stereo)
[6]; po
  LD50: > 300 mg/kg
[10]
  LD50: > 300 mg/kg

## CC1(C)[C@H](C=C(Cl)Cl)[C@H]1C(=O)OCc1cccc(Oc2ccccc2)c1 [Compound P29M, 3-Phenoxybenzyl-(1R)--trans-2,2-dimethyl-3-(2,2-dichlorovinyl)cyclopropanecarboxylate]
[5]
  Relative Toxicity (American cockroach): 800
[3]
  Relative Toxicity, Houseflies: 740
[4]
  Selectivity (ratio of toxicity to Ephestia compared to Venturia): 2.8

## CC1(C)[C@H](C(=O)OCc2cccc(Oc3ccccc3)c2)[C@@H]1C=C(Cl)Cl [Compound P29L]
[5]
  Relative Toxicity (American cockroach): 2,100
[4]
  Selectivity (ratio of toxicity to Ephestia compared to Venturia): 2.3

## C#CCc1ccc(COC(=O)[C@@H]2[C@@H](C=C(Cl)Cl)C2(C)C)o1 (relative stereo)
[6]; po
  LD50: 300 mg/kg
[10]
  LD50: ~300 mg/kg

## CC1(C)[C@H](C(=O)OC(C#N)c2cccc(C(=O)c3ccccc3)c2)[C@@H]1C=C(Br)Br (stereo partly drawn) [Compound P39E, (αRS)-cyano-3-benzoylbenzyl(1R)cis-2,2-dimethyl-3-(2,2-dibromovinyl)-cyclopropane carboxylate]
[1]
  Relative Toxicity, Mustard Beetles: 2200
[3]
  Relative Toxicity, Houseflies: 330
[11]; 0.1 mg/ml
  inhibition at 100 µg/mL: 0%
[11]; 1 mg/ml
  inhibition at 1000 µg/mL: 90%
[11]; 10 mg/ml
  inhibition at 10000 µg/mL: 100%
[4]; Ephestia over Venturia
  selectivity in words: very marked and quite unexpected selectivity
[4]
  Selectivity (ratio of toxicity to Ephestia compared to Venturia): 7.9

## CC1(C)C(C=C(Cl)Cl)C1C(=O)OCc1cccc(Oc2ccccc2)c1 (stereo not drawn) [Compound P21H]
[8]
  LD 50 active compound only: 0.031 µg
  LD50 Active compound + piperonyl butoxide (1:5): 0.018 µg
[8]; with Tropital (1:5)
  LD50 Active compound + Tropital (1:5): 0.019 µg
[9]
  LD50: 0.022 μg/female
[1]
  Relative Toxicity, Mustard Beetles: 740
[3]
  Relative Toxicity, Houseflies: 660

## CC1(C)[C@H](C=C(Cl)Cl)[C@H]1C(=O)OCc1coc(Cc2ccccc2)c1 (relative stereo)
[10]
  LD50: 100 mg/kg
